This note sets out measurements from EP0470323A2, “New salts of the nicotinic acid with aminobenzylic compounds and their pharmaceutical use” (BROMLEY LIMITED, priority 1990, dated 1992).

In assay [1] the test system is skin temperature of the mouse's paw. Put plainly: Peripheral vessel-dilating activity in the mouse (skin temperature of hind paws). It counts as in vivo. As to conditions: listed as buflomedil HCl; for Temperature (°C) of the hind paws (n=10): intravenous, dose 0,030 mM/kg/iv; for Temperature (°C) of the hind paws: oral, dose 0,500 mM/kg/os. As for the experimental part:
The method of Richter W. (Acta Pharm. Toxicol. 21, 91; 1974) was used; it consists in determining, at fixed time intervals after the treatment, the skin temperature of the mouse's paw, by keeping the animals in rooms at a constant temperature of 21°C.
Some groups of ten male mouses each have been used; the weight of each animal was 30 g approximately.
The compound according to the Example 1 has been tested "per os" at three basic levels of the doses (0,125 - 0,25 - 0,5 mM/kg) and by intravenous injection at two dose levels (0,015 and 0,03 mM/kg), in comparison with one sole dose of Papaverin and chlorhydrated Buflomedil (0,5 mM/kg "per os" and 0,03m M/kg intravenous). The observation of the skin temperature at the mouse's paw was made before the treatment, 30, 60 and 120 minutes after the "per os" treatment, […] (A-Hl Ellab) connected with an Ellab electric recorder. Of each animal the temperature of both hind paws has been measured, and the values obtained have been averaged .

Assay [2] has as its system aggregation of the platelets caused by the collagene. The assay is described as follows: Anti-aggregating ex vivo activity against collagen in the rat. As for the experimental part: Six groups of 15 male rats of 200 - 250 g have been used.
The blood taken from the three rats of each group has been mixed and centrifuged during 6 minutes at 1400 rpm, at room temperature. After having taken the plasma full of platelets (PRP) the thereunder floating material has been centrifuged again (4000 rpm during 10 minutes) in order to have the plasma with few platelets (PPP) separated from the balance. The PRP has been diluted with a part of PPP in order to bring the number of platelets to 350 ± 50 x 10³/mm³. The aggregation has been evaluated in accordance with the method of Minsker D.H. and coll. (J. Pharmacol.Exp.Ther. 210 37 1979) by using an ELVI 840 two-channels aggregometer and an Omniscribe recorder B.500. A quantity of 0,25 ml PRP has been used, transferred into the aggregometer for two minutes at 37°C and stirred at 1000 rpm. The light intensity was arranged in such a way, to obtain 0% transmittance with the PRP and 100% with the PPP. After 2′ incubation, by means of microsyringe the collagene was added to the PRP in a volume quantity of 5 mcl with the final concentration of 4 mcg/ml.
From the aggregation trace of the recorder the following data have been evaluated: • a) latent time of the aggregation (seconds between the introductions of collagene and the starting of the aggregation) • b) transmittance increase percentage (maximum aggregation). The same proceeding was repeated for all animals, always by mixing the blood of three rats belonging to the same group and by obtaining in this manner five aggregation curves per group.

In assay [3] the test system is Central artery of a rabbit's ear. The assay is described as follows: In vitro antispastic action, adrenalin-induced spasm of the perfused isolated artery. As to conditions: spasm induced by Adrenalin, n=4. The protocol: An "in vitro" method has been used, according to which the withdrawal of the central artery of a rabbit's ear with the relevant nervous connections and the equipment of an appropriate seat for secluded organs was designed (Fleckenstein A., British Journal of Pharmacology 7, 533, 1952).
On the artery they did install a three-ways tube, connected with a peristaltic pump and with a mercury manometer to record the perfusion pressure. The artery was perfused with a rebs liquid at the speed of 2,5 ml/minute. The contractions were induced by injecting into the vessel 0,1 ml adrenalin at the concentration of 1 mcg/ml. The compound according to the example 1 has been added to the bath at concentrations of 0,5 - 1 - 2 uM, five minutes before the adrenalin (four preparations per concentration). As comparison drugs, chlorhydra ted Buflomedil and Papaverin have been used. The activity of the material under investigation has been appreciated in terms of percentages referring to the concentration induced by the Adrenalin (and expressed with DE₅₀) and the relevant forbidding.

Assay [4] has as its system red cells in the rat. Put plainly: Red cell adhesivity / filtration, Teitel method. The assay is classed as in vivo. Particulars: for Teitel method Δ % vs contr.: dose 3 x 0,5 mM/kg/os; for Teitel method T1/2 min. M ± E.S.: dose 3 x 0,5 mM/kg/os (three consecutive days). From the text: (§1) steresis (Teiltel P.: Nouv. Rev. Franç. Hématol. 7, 195, 1967). Any alteration, almost undoubtely at the level of the red cell's membrane, cause some damaging variations of the red cell's elasticity thus making more difficult the passing through the capillary vessels having more reduced diameter, and therefore increasing the flow resistance in the peripheral vessels systems. In order to determine the effect caused by the compound according to the Example 1, on these features of the red cell, the method described by Schmidt, Schonbein and colleagues (Blut 26, 369, 1973) has been used.
(§2) In the circulatory flow, the above mentioned capillary vessels being excluded, the blood cells do normally circulate being attached between each other because of their adhesiveness. In order to study this adhesion force, the above mentioned Teitel method has been used. Male rats of 150 g body weight approximately have been employed, and they have been treated for three consecutive days with 0,5 mM/kg/os of the compound according to the Example 1, or otherwise Buflomedil, or even Pentosiphillin used as comparison substance. After the last treatment the animals, without eating from 18 hours, have been killed in a light ethereal anaesthesy and the blood was collected over an 0,2 molar EDTA (9 and 1 volumes respectively). The red cells filtering possibility, measured with the Teitel method, wherein the quantity of red cells passing, in high haematocritical conditions, through a paper filter with holes of 20-40 µm in a previously determined time, has been ascertained as follows: the blood was centrifuged for ten minutes at 2000 rpm in order to obtain the massing of the red cells, two ml of the blood collected as above were put into an upside down turned cone made with filtering paper, being previously wetted with a physiological solution. The volume passing through the filter in 2 - 4 - 8 and 16 minutes is then measured. The average filtration time T 1/2 is reckoned on semi-logarithmic paper by putting on the abscissae the logarithm of the time, and on the ordinates the percentage of blood filtered. In order to follow the Schmidt Schönbein method, the here after described proceeding has been performed: 0,2 ml of a suspension of red cells at 2% obtained by diluting the blood with the autological plasma, then it was placed into an appropriate device permitting to filter this blood through a filter (millipores) of 5 µm mashes at a filtration pressure of 50 mm water. With a chronometer one determines the time required for the passage of the whole sample through the filter.
At time same time, one measures, in the same conditions, the same parameter for a plasma sample. One calculates then the relative filtration time by dividing the time required to filter the diluted blood sample by the time being necessary to filter the plasma sample. For each group the average and the standard error of the individual data obtained was reckoned. The statistical evaluation was obtained by means of the Dunnett test.

Assay [5] deals with red cells in the rat. The assay is described as follows: Red cell deformability / filtration, Schmidt-Schönbein method. Particulars: dose 3 x 0,5 mM/kg/os. It counts as in vivo.
Text: as §1
as §2, with “The average filtration time T 1/2 is reckoned on semi-logarithmic paper by putting on the abscissae the logarithm of the time, and on the ordinates the percentage of blood filtered. In order to follow the Schmidt Schönbein method, the here after described proceeding has been performed: 0,2 ml of a suspension of red cells at 2% obtained by diluting the blood with the autological plasma, then it was placed into an appropriate device permitting to filter this blood through a filter (millipores) of 5 µm mashes at a filtration pressure of 50 mm water. With a chronometer one determines the time required for the passage of the whole sample through the filter.” left out

Where [6] appears, read: 0 minutes (before the treatment).
The mark [7] stands for this setting: rat, 1,00 mM/kg os for 4 days, PRP 2 hours after last treatment, collagene 4 mcg/ml, listed as Chlorhydrated Buflo-medil.
[8] abbreviates: rat, 1,00 mM/kg os for 4 days, listed as Chlorhydrated Buflo-medil.

Turning to `COc1cc(OC)c(C(=O)CCCN2CCCC2)c(OC)c1` [Buflomedil, reference compound], the “Temperature (°C) of the hind paws (n=10)” value in assay [1] (setting [6]) was 24,3 ± 0,32 °C; in assay [1] (30 minutes from the treatment) it was 26,6 ± 0,20 °C; in assay [1] (60 minutes from the treatment), 26,3 ± 0,24 °C; in assay [1] (120 minutes from the treatment), 26,0 ± 0,18 °C. The “Temperature (°C) of the hind paws” value in assay [1] (setting [6]) was 24,2 ± 0,30 °C; in assay [1] (30 minutes from the treatment) it was 25,8 ± 0,25 °C; in assay [1] (60 minutes from the treatment) it was 26,5 ± 0,50 °C; in assay [1] (120 minutes from the treatment) it was 26,1 ± 0,42 °C. In addition, the “effect relative to that caused by the same dose of the compound according to the example 1” value in assay [2] (rat, 1 mM/kg os, platelet aggregation by collagene) was “approximately 50%”. The “Latency time (sec.)” value in assay [2] (setting [7]) is recorded as 51,9 ± 3,7 sec. The “Transmittance percentage (maximum aggregation)” value in assay [2] (setting [7]) is on record as 54,2 ± 4,5%. Further, in assay [2] (setting [8]), the “Latency time, % variation vs controls” value was “+38,4%”. For the same compound, the “Transmittance percentage, % variation vs controls” value in assay [2] (setting [8]) is given as -31%. Besides, in assay [3] (Oryctolagus cuniculus, read-out: DE50 (the source's name)), the EC50 was found to be 0.67 µM. The “% inhibi-tions of the con-tractions” value in assay [3] (concentration 0,5 μ M) is on record as 41%; in assay [3] (concentration 1,0 μ M), 60%; in assay [3] (concentration 2,0 μ M), 87%. Moreover, the “Teitel method Δ % vs contr.” value in assay [4] is listed as 20,3%. Also, in assay [4], the “Teitel method T1/2 min. M ± E.S.” value was 2,90 ± 0,28 min. Besides, the “Schmidt-Schönbein method Δ % vs contr.” value in assay [5] was 24,2%.

Take `CC(=O)CCCCn1c(=O)c2c(ncn2C)n(C)c1=O` [pentossifillin]: in assay [4], the “Teitel method Δ % vs contr.” value is 40,1% and the “Teitel method T1/2 min. M ± E.S.” value is 2,18 ± 0,19 min. Moreover, in assay [5], the “Schmidt-Schönbein method Δ % vs contr.” value is 52,8%.
